Laboratory results taken from the supplement of paper PMC10307832.

Columns and labels:
Assay in all cases: relative viability (nuclei count vs DMSO), 5 days (fraction); higher = more cells survive
Dactolisib + Pemetrexed = compound: Cn1c(=O)n(-c2ccc(C(C)(C)C#N)cc2)c2c3cc(-c4cnc5ccccc5c4)ccc3ncc21 [Dactolisib] + Nc1nc2[nH]cc(CCc3ccc(C(=O)N[C@@H](CCC(=O)O)C(=O)O)cc3)c2c(=O)[nH]1 [Pemetrexed] (partner 0.2 µM)
In short: (§1)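 Lung cancer cell lines in 1536-well plates were dosed by pin tool the day after seeding, either with one drug alone or with a fixed anchor-drug dose plus five library-drug doses (not always all listed) in √10 steps. After 5 days, cells were fixed and their nuclei stained in one step (final 0.05% Triton X-100, 1% formaldehyde, 1 ug/ml Hoechst), then counted on 4× images. Relative viability is the nuclei count in treated wells divided by that in vehicle wells. Values are medians of duplicate plates.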

AZ505 + OSI-027 = compound: C1CCC(CC1)N(CCNCCC2=C3C(=C(C=C2)O)NC(=O)CO3)C(=O)CCNCCC4=CC(=C(C=C4)Cl)Cl [AZ505] + COc1cccc2cc(-c3nc([C@H]4CC[C@H](C(=O)O)CC4)n4ncnc(N)c34)[nH]c12 [OSI-027] (partner 0.5 µM)
In short: as §1

Dactolisib = compound: Cn1c(=O)n(-c2ccc(C(C)(C)C#N)cc2)c2c3cc(-c4cnc5ccccc5c4)ccc3ncc21 [Dactolisib]
In short: (§2)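 Vehicle-anchored 1536-well plates of lung cancer cell lines, held overnight at 37 °C, were pinned with five library-drug doses (not always all listed) spaced by √10. No medium change followed over the next 5 days, after which the cells were fixed, permeabilised and Hoechst-stained together and imaged at 4×. Nuclei were counted with MetaXpress, and viability is treated-well nuclei over vehicle-well nuclei, taken as a median across plates. Plates passed with control CV below 25% and at least one doubling.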

AZ505 = compound: C1CCC(CC1)N(CCNCCC2=C3C(=C(C=C2)O)NC(=O)CO3)C(=O)CCNCCC4=CC(=C(C=C4)Cl)Cl [AZ505]
In short: as §2

| Cell Line | relative viability (Dactolisib + Pemetrexed; first compound 0.002 µM) | relative viability (Dactolisib + Pemetrexed; first compound 0.006325 µM) | relative viability (Dactolisib + Pemetrexed; first compound 0.02 µM) | relative viability (Dactolisib + Pemetrexed; first compound 0.06325 µM) | relative viability (Dactolisib + Pemetrexed; first compound 0.2 µM) | relative viability (AZ505 + OSI-027; first compound 0.08 µM) | relative viability (AZ505 + OSI-027; first compound 0.253 µM) | relative viability (AZ505 + OSI-027; first compound 0.8 µM) | relative viability (AZ505 + OSI-027; first compound 2.53 µM) | relative viability (AZ505 + OSI-027; first compound 8 µM) | relative viability (Dactolisib; 0.002 µM) | relative viability (Dactolisib; 0.006325 µM) | relative viability (Dactolisib; 0.02 µM) | relative viability (Dactolisib; 0.06325 µM) | relative viability (Dactolisib; 0.2 µM) | relative viability (AZ505; 0.08 µM) | relative viability (AZ505; 0.253 µM) | relative viability (AZ505; 0.8 µM) | relative viability (AZ505; 2.53 µM) | relative viability (AZ505; 8 µM) |
| --- | --- | --- | --- | --- | --- | --- | --- | --- | --- | --- | --- | --- | --- | --- | --- | --- | --- | --- | --- | --- |
| PC-3 [JPC-3] | 1.35 | 1.11 | 1 | 1.26 | 0.555 | 0.671 | 0.798 | 0.712 | 0.707 | 0.797 | 1.11 | 1.03 | 1.03 | 0.898 | 0.664 | 0.956 | 0.978 | 0.974 | 0.926 | 1.07 |
| PC-14 | 0.0904 | 0.129 | 0.192 | 0.197 | 0.145 | 0.72 | 0.835 | 0.666 | 0.765 | 0.786 | 1.05 | 1.01 | 0.836 | 0.33 | 0.182 | 0.915 | 0.96 | 0.947 | 0.955 | 1.04 |
| RERF-LC-KJ | 0.488 | 0.479 | 0.46 | 0.433 | 0.434 | 0.471 | 0.575 | 0.552 | 0.574 | 0.492 | 1 | 0.961 | 0.889 | 0.497 | 0.509 | 0.947 | 0.968 | 0.925 | 0.953 | 0.943 |
| SK-LU-1 | 0.944 | 0.913 | 0.874 | 0.747 | 0.439 | 0.168 | 0.184 | 0.201 | 0.197 | 0.255 | 0.879 | 0.995 | 0.88 | 0.502 | 0.359 | 0.634 | 0.683 | 0.65 | 0.679 | 0.797 |
| SK-MES-1 | 0.993 | 0.837 | 0.847 | 0.417 | 0.367 | 0.501 | 0.53 | 0.534 | 0.577 | 0.583 | 1.1 | 0.983 | 0.914 | 0.542 | 0.339 | 0.92 | 0.953 | 0.909 | 0.943 | 0.935 |
| SW 900 | 0.498 | 0.48 | 0.474 | 0.259 | 0.271 | 0.441 | 0.427 | 0.623 | 0.753 | 0.702 | 0.913 | 0.769 | 0.714 | 0.329 | 0.346 | 0.857 | 0.856 | 0.818 | 0.963 | 0.97 |
| SW 1573 | 0.696 | 0.768 | 0.584 | 0.284 | 0.203 | 0.589 | 0.579 | 0.689 | 0.68 | 0.63 | 1.07 | 0.838 | 0.696 | 0.414 | 0.284 | 0.9 | 0.964 | 0.899 | 0.914 | 0.958 |
